Results as given in patent US7345070B2, “Peroxisome proliferator activated receptor agonists” (Eli Lilly and Company, priority 2000, dated 2008).

Key:
huPPARγ = target: T1, huPPARγ (Homo sapiens, UniProt P37231); test: DNA-dependent binding (ABCD binding) using SPA technology, huPPARγ; settings: SPA displacement of tritium-labeled PPARγ agonist radioligand
T1 sequence (P37231 1-505): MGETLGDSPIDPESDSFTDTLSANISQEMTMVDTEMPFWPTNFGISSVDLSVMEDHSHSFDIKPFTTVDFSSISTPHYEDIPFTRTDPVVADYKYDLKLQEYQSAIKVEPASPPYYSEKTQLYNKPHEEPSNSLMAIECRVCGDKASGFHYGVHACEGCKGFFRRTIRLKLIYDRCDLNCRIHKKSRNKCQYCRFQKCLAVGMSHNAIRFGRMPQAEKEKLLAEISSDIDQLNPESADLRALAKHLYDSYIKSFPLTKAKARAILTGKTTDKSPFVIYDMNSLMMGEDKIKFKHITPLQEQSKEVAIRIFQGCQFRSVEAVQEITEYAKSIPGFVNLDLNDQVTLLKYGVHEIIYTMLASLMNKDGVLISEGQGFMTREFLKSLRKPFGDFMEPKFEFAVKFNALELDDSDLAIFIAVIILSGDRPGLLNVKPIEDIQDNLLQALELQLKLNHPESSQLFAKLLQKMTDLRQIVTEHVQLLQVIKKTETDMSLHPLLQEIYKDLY
T1 sequence (P19793 1-462 partner): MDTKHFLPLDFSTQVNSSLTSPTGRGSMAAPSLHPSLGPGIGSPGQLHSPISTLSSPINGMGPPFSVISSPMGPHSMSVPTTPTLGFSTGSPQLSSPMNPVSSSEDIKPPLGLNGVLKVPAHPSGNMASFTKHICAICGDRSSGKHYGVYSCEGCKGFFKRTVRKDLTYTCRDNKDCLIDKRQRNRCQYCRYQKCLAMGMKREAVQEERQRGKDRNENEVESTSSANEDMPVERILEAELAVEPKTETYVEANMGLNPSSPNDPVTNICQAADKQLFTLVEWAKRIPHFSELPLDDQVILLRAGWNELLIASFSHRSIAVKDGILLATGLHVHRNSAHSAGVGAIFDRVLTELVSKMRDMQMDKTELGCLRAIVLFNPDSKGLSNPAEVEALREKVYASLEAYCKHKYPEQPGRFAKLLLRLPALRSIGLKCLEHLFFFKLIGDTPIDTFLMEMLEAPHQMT
Method: (§1) DNA-dependent binding (ABCD binding) was carried out using SPA technology with PPAR receptors. Tritium-labeled PPARα and PPARγ agonists were used as radioligands for generating displacement curves and IC50 values with compounds of the invention. Cotransfection assays were carried out in CV-1 cells. The reporter plasmid contained an acylCoA oxidase (AOX) PPRE and TK promoter upstream of the luciferase reporter cDNA. Appropriate PPARs and RXRα were constitutively expressed using plasmids containing the CMV promoter. […] In order to eliminate such interference, a GAL4 chimeric system was used in which the DNA binding domain of the transfected PPAR was replaced by that of GAL4, and the GAL4 response element was utilized in place of the AOX PPRE. Cotransfection efficacy was determined relative to PPARα agonist and PPARγ agonist reference molecules. Efficacies were determined by computer fit to a concentration-response curve, or in some cases at a single high concentration of agonist (10 μM). For binding or cotransfection studies with receptors other than PPARs, similar assays were carried out using appropriate ligands, receptors, reporter constructs, etc., for that particular receptor.
(§2) These studies were carried out to evaluate the ability of compounds of the invention to bind to and/or activate various nuclear transcription factors, particularly huPPARα (“hu” indicates “human”) and huPPARγ. These studies provide in vitro data concerning efficacy and selectivity of compounds of the invention. Furthermore, binding and cotransfection data for compounds of the invention were compared with corresponding data for marketed compounds that act on either huPPARα or huPPARγ.

huPPARα = test: Cotransfection assay in CV-1 cells, huPPARα; assay type: cell-based, human; settings: GAL4 chimeric system, relative to PPARα agonist reference molecule
Method: as §1, §2

| SMILES | IC50 (huPPARγ) | huPPARα CTF Efficacy (huPPARα) |
| --- | --- | --- |
| Cc1oc(-c2cccc(Br)c2)nc1CCOc1ccc(CC(C)(Oc2ccccc2)C(=O)O)cc1 (stereo not shown) [Example 8, 3-(4-{2-[2-(3-Bromophenyl)-5-methyloxazol-4-yl]ethoxy}phenyl)-2-methyl-2-phenoxypropionic acid] | 24 nM | 54% |
| Cc1oc(C2(C)CCCCC2)nc1CCOc1ccc(CC(C)(Oc2ccccc2)C(=O)O)cc1 (stereo not shown) [Example 9, 2-Methyl-3-(4-{2-[5-methyl-2-(1-methylcyclohexyl)oxazol-4-yl]ethoxy}phenyl)-2-phenoxypropionic acid] | 11 nM | 61% |
| Cc1oc(-c2cccs2)nc1CCOc1ccc(CC(C)(Oc2ccc(C(C)(C)C)cc2)C(=O)O)cc1 (stereo not shown) [Example 17, 2-Methyl-3-{4-[2-(5-methyl-2-thiophen-2-yl-oxazol-4-yl)-ethoxy]-phenyl}-2-(4-tert-butylphenoxy)-propionic acid] | 67 nM | 129% |
| COc1ccc(OC(C)(Cc2ccc(OCCc3nc(-c4cccs4)oc3C)cc2)C(=O)O)cc1 (stereo not shown) [Example 19, 2-Methyl-3-{4-[2-(5-methyl-2-thiophen-2-yl-oxazol-4-yl)-ethoxy]-phenyl}-2-(4-methoxyphenoxy)-propionic acid] | 80 nM | 64% |
| Cc1oc(-c2cccs2)nc1CCOc1ccc(CC(C)(Oc2cccc(F)c2)C(=O)O)cc1 (stereo not shown) [Example 22, 2-(3-Fluoro-phenoxy)-2-methyl-3-{4-[2-(5-methyl-2-thiophen-2-yl-oxazol-4-yl)-ethoxy]-phenyl}-propionic acid] | 85 nM | 51% |
| Cc1oc(-c2cccs2)nc1CCOc1ccc(CC(C)(Oc2cccc(C(C)(C)C)c2)C(=O)O)cc1 (stereo not shown) [Example 25, 2-(3-tert-Butyl-phenoxy)-2-methyl-3-{4-[2-(5-methyl-2-thiophen-2-yl-oxazol-4-yl)-ethoxy]-phenyl}-propionic acid] | 70 nM | 95% |
| Cc1oc(-c2cccs2)nc1CCOc1ccc(CC(C)(Oc2ccccc2F)C(=O)O)cc1 (stereo not shown) [Example 27, 2-(2-Fluoro-phenoxy)-2-methyl-3-{4-[2-(5-methyl-2-thiophen-2-yl-oxazol-4-yl)-ethoxy]-phenyl}-propionic acid] | 76 nM | 46% |
| Cc1oc(-c2ccccc2)nc1CCOc1ccc(CC(C)(Oc2ccc(Cl)cc2)C(=O)O)cc1 (stereo not shown) [Example 29, 2-(4-Chloro-phenoxy)-2-methyl-3-{4-[2-(5-methyl-2-phenyl-oxazol-4-yl)-ethoxy]-phenyl}-propionic acid] | 48 nM | 65% |
| Cc1oc(C2CCCCC2)nc1CCOc1ccc(CC(C)(Oc2ccc(C3CCCCC3)cc2)C(=O)O)cc1 (stereo not shown) [Example 34, 3-{4-[2-(2-Cyclohexyl-5-methyl-oxazol-4-yl)-ethoxy]-phenyl}-2-(4-cyclohexyl-phenoxy)-2-methyl-propionic acid] | 77 nM | 112% |
| Cc1ccc(OC(C)(Cc2ccc(OCCc3nc(C4CCCCC4)oc3C)cc2)C(=O)O)cc1C (stereo not shown) [Example 35, 3-{4-[2-(2-Cyclohexyl-5-methyl-oxazol-4-yl)-ethoxy]-phenyl}-2-(3,4-dimethyl-phenoxy)-2-methyl-propionic acid] | 79 nM | 78% |
| Cc1ccc(OC(C)(Cc2ccc(OCCc3nc(-c4cccs4)oc3C)cc2)C(=O)O)cc1C (stereo not shown) [Example 36, 2-(3,4-Dimethyl-phenoxy)-2-methyl-3-{4-[2-(5-methyl-2-thiophen-2-yl-oxazol-4-yl)-ethoxy]-phenyl}-propionic acid] | 88 nM | 70% |
| Cc1ccc(OC(C)(Cc2ccc(OCCc3nc(-c4cccs4)oc3C)cc2)C(=O)O)cc1 (stereo not shown) [Example 40, 2-Methyl-3-{4-[2-(5-methyl-2-thiophen-2-yl-oxazol-4-yl)-ethoxy]-phenyl}-2-p-tolyloxy-propionic acid] | 10 nM | 77% |
| Cc1oc(-c2cccs2)nc1CCOc1ccc(CC(C)(Oc2ccc(C(F)(F)F)cc2)C(=O)O)cc1 (stereo not shown) [Example 51, 2-Methyl-3-{4-[2-(5-methyl-2-thiophen-2-yl-oxazol-4-yl)-ethoxy]-phenyl}-2-(4-trifluoromethyl-phenoxy)-propionic acid] | 80 nM | 152% |
| Cc1cccc(OC(C)(Cc2ccc(OCCc3nc(-c4cccs4)oc3C)cc2)C(=O)O)c1 (stereo not shown) [Example 61, 2-Methyl-3-{4-[2-(5-methyl-2-thiophen-2-yl-oxazol-4-yl)-ethoxy]-phenyl}-2-m-tolyloxy-propionic acid] | 84 nM | 52% |
| Cc1cccc(OC(C)(Cc2ccc(OCCc3nc(C4CCCCC4)oc3C)cc2)C(=O)O)c1 (stereo not shown) [Example 62, 3-{4-[2-(2-Cyclohexyl-5-methyl-oxazol-4-yl)-ethoxy]-phenyl}-2-methyl-2-m-tolyloxy-propionic acid] | 79 nM | 101% |
| Cc1oc(-c2cccs2)nc1CCOc1ccc(CC(C)(Oc2ccc(F)cc2)C(=O)O)cc1 (stereo not shown) [Example 64, 2-(4-Fluoro-phenoxy)-2-methyl-3-{4-[2-(5-methyl-2-thiophen-2-yl-oxazol-4-yl)-ethoxy]-phenyl}-propionic acid] | 112 nM | 50% |

The next lines start with results.

| IC50 (huPPARγ) | SMILES | huPPARα CTF Efficacy (huPPARα) |
| --- | --- | --- |
| 60 nM | Cc1oc(C2CCCCC2)nc1CCOc1ccc(CC(C)(Oc2ccc(C(C)(C)C)cc2)C(=O)O)cc1 (stereo not shown) [Example 18, 2-Methyl-3-(4-{2-[5-methyl-2-cyclohexylyl-oxazol-4-yl]-ethoxy}-phenyl)-2-(4-tert-butylphenoxy)-propionic acid] | 102% |
| 81 nM | Cc1oc(C2CCCCC2)nc1CCOc1ccc(CC(C)(Oc2cccc(F)c2)C(=O)O)cc1 (stereo not shown) [Example 23, 2-(3-Fluoro-phenoxy)-2-methyl-3-{4-[2-(5-methyl-2-cyclohexyl-oxazol-4-yl)-ethoxy]-phenyl}-propionic acid] | 40% |
| 109 nM | Cc1ccc(OC(C)(Cc2ccc(OCCc3nc(C4CCCCC4)oc3C)cc2)C(=O)O)cc1 (stereo not shown) [Example 41, 3-{4-[2-(2-Cyclohexyl-5-methyl-oxazol-4-yl)-ethoxy]-phenyl}-2-methyl-2-p-tolyloxy-propionic acid] | 49% |
| 159 nM | Cc1oc(C2CCCCC2)nc1CCOc1ccc(CC(C)(Oc2ccc(OC(F)(F)F)cc2)C(=O)O)cc1 (stereo not shown) [Example 44, 3-{4-[2-(2-Cyclohexyl-5-methyl-oxazol-4-yl)-ethoxy]-phenyl}-2-methyl-2-(4-trifluoromethoxy-phenoxy)-propionic acid] | 54% |
| 76 nM | Cc1oc(C2CCCCC2)nc1CCOc1ccc(CC(C)(Oc2ccc(C(F)(F)F)cc2)C(=O)O)cc1 (stereo not shown) [Example 52, 3-{4-[2-(2-Cyclohexyl-5-methyl-oxazol-4-yl)-ethoxy]-phenyl}-2-methyl-2-(4-trifluoromethyl-phenoxy)-propionic acid] | 108% |
| 66 nM | Cc1oc(C2CCCCC2)nc1CCOc1ccc(CC(C)(Oc2ccc(F)c(F)c2)C(=O)O)cc1 (stereo not shown) [Example 58, 3-{4-[2-(2-Cyclohexyl-5-methyl-oxazol-4-yl)-ethoxy]-phenyl}-2-(3,4-difluoro-phenoxy)-2-methyl-propionic acid] | 149% |
| 82 nM | Cc1oc(C2CCCCC2)nc1CCOc1ccc(CC(C)(Oc2ccc(F)cc2)C(=O)O)cc1 (stereo not shown) [Example 65, 3-{4-[2-(2-Cyclohexyl-5-methyl-oxazol-4-yl)-ethoxy]-phenyl}-2-(4-fluoro-phenoxy)-2-methyl-propionic acid] | 46% |
